Laboratory results from patent US20090270350A1, “Pyridinone Pyrazole Urea and Pyrimidinone Pyrazole Urea Derivatives” (PFIZER INC., priority 2006, published 2009).

These molecules were tested against p38α (Homo sapiens, UniProt Q16539) (assay: p38α/MK2 cascade assay). Conditions: Table 2; same p38α/MK2 cascade assay; 40 minutes preincubation; read-out: p38a/MK2 Cascade 40 min Pre-Incuabtion (% Inhibition): IC50.
Type: biochemical
Summary of the method: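 In a cascade format, p38α was preincubated 40 min with inhibitor (1000–0.05 nM) before adding 1 nM nonactive MK2 (54-400), 5 μM MgATP and 0.5 μM FITC-Hsp27 peptide. Reaction ran 60 min in HEPES pH 7.5 with MgCl2, DTT, 2% DMSO, then EDTA-quenched. Peptide phosphorylation was measured by Caliper mobility shift to give IC50.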

Chain of p38α (Q16539 whole entry): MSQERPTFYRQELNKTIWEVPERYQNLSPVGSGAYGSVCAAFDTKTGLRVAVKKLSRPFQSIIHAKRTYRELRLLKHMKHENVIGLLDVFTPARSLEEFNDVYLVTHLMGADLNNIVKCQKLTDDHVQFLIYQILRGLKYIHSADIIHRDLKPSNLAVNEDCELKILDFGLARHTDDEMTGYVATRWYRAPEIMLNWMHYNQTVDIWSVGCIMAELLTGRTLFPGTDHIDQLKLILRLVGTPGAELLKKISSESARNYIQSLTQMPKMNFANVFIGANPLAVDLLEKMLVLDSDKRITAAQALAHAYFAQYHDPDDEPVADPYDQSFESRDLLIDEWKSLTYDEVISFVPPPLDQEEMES

SMILES	IC50 [nM]
COc1ccc(Cn2c(C)cc(OCc3ccccc3CNC(=O)Nc3cc(C(C)(C)C)nn3-c3cccc(O)c3)c(C)c2=O)cc1C#N [Example 252, 1-[3-tert-butyl-1-(3-hydroxyphenyl)-1H-pyrazol-5-yl]-3-[2-({[1-(3-cyano-4-methoxybenzyl)-3,6-dimethyl-2-oxo-1,2-dihydro-pyridin-4-yl]oxy}methyl)benzyl]urea]	6
COc1ccc(Cn2c(C)cc(OCc3ccccc3CNC(=O)Nc3cc(C(C)(C)C)nn3-c3ccc(O)cc3)c(C)c2=O)cc1C#N [Example 253, 1-[3-tert-butyl-1-(4-hydroxyphenyl)-1H-pyrazol-5-yl]-3-[2-({[1-(3-cyano-4-methoxybenzyl)-3,6-dimethyl-2-oxo-1,2-dihydropyridin-4-yl]oxy}methyl)benzyl]urea]	8.3
COc1cc(Cn2c(C)cc(OCc3ccccc3CNC(=O)Nc3cc(C(C)(C)C)nn3-c3ccc(O)c(Cl)c3)c(Cl)c2=O)ccc1Cl [Example 254, 1-[3-tert-butyl-1-(3-chloro-4-hydroxyphenyl)-1H-pyrazol-5-yl]-3-[2-({[3-chloro-1-(4-chloro-3-methoxybenzyl)-6-methyl-2-oxo-1,2-dihydropyridin-4-yl]oxy}methyl)benzyl]urea]	26.6
COc1cc(Cn2c(C)cc(OCc3ccccc3CNC(=O)Nc3cc(C(C)(C)C)nn3-c3cccc(OCCO)c3)c(Cl)c2=O)ccc1Cl [Example 255, 1-{3-tert-butyl-1-[3-(2-hydroxyethoxy)phenyl]-1H-pyrazol-5-yl}-3-[2-({[3-chloro-1-(4-chloro-3-methoxybenzyl)-6-methyl-2-oxo-1,2-dihydropyridin-4-yl]oxy}methyl)benzyl]urea]	7.2
COc1cc(Cn2c(C)cc(OCc3ccccc3CNC(=O)Nc3cc(C(C)(C)C)nn3-c3ccc(Cl)c(O)c3)c(Cl)c2=O)ccc1Cl [Example 256, 1-[3-tert-butyl-1-(4-chloro-3-hydroxyphenyl)-1H-pyrazol-5-yl]-3-[2-({[3-chloro-1-(4-chloro-3-methoxybenzyl)-6-methyl-2-oxo-1,2-dihydropyridin-4-yl]oxy}methyl)benzyl]urea]	19.9
COc1ccc(Cn2c(C)cc(OCc3ccccc3CNC(=O)Nc3cc(C(C)(C)C)nn3-c3ccc(Cl)c(O)c3)c(Cl)c2=O)cc1 [Example 257, 1-[3-tert-butyl-1-(4-chloro-3-hydroxyphenyl)-1H-pyrazol-5-yl]-3-[2-({[3-chloro-1-(4-methoxybenzyl)-6-methyl-2-oxo-1,2-dihydro-pyridin-4-yl]oxy}methyl)benzyl]urea]	4.7
COc1cc(Cn2c(C)cc(OCc3ccccc3CNC(=O)Nc3cc(C(C)(C)C)nn3-c3ccc(O)cc3)c(Cl)c2=O)ccc1Cl [Example 258, 1-[3-tert-butyl-1-(4-hydroxyphenyl)-1H-pyrazol-5-yl]-3-[2-({[3-chloro-1-(4-chloro-3-methoxybenzyl)-6-methyl-2-oxo-1,2-dihydropyridin-4-yl]oxy}methyl)benzyl]urea]	10.1
COc1ccc(Cn2c(C)cc(OCc3ccccc3CNC(=O)Nc3cc(C(C)(C)C)nn3-c3cccc(O)c3)c(C)c2=O)cc1Cl [Example 259, 1-[3-tert-butyl-1-(3-hydroxyphenyl)-1H-pyrazol-5-yl]-3-[2-({[1-(3-chloro-4-methoxybenzyl)-3,6-dimethyl-2-oxo-1,2-dihydro-pyridin-4-yl]oxy}methyl)benzyl]urea]	9.2
COc1ccc(Cn2c(C)cc(OCc3ccccc3CNC(=O)Nc3cc(C(C)(C)C)nn3-c3ccc(Cl)c(O)c3)c(C)c2=O)cc1Cl [Example 260, 1-[3-tert-butyl-1-(4-chloro-3-hydroxyphenyl)-1H-pyrazol-5-yl]-3-[2-({[1-(3-chloro-4-methoxybenzyl)-3,6-dimethyl-2-oxo-1,2-dihydropyridin-4-yl]oxy}methyl)benzyl]urea]	15.4
Cc1cc(OCc2ccccc2CNC(=O)Nc2cc(C(C)(C)C)nn2-c2ccc(O)c(Cl)c2)c(Cl)c(=O)n1Cc1cccc(CNC(=O)CO)c1 [Example 261, N-[3-({4-[(2-{[({[3-tert-butyl-1-(3-chloro-4-hydroxyphenyl)-1H-pyrazol-5-yl]amino}carbonyl)amino]methyl}benzyl)oxy]-3-chloro-6-methyl-2-oxopyridin-1(2H)-yl}methyl)benzyl]-2-hydroxyacetamide]	8.9
COc1ccccc1Cn1c(C)cc(OCc2ccccc2CNC(=O)Nc2cc(C(C)(C)C)nn2-c2ccc(Cl)c(O)c2)c(Cl)c1=O [Example 262, 1-[3-tert-butyl-1-(4-chloro-3-hydroxyphenyl)-1H-pyrazol-5-yl]-3-[2-({[3-chloro-1-(2-methoxybenzyl)-6-methyl-2-oxo-1,2-dihydro-pyridin-4-yl]oxy}methyl)benzyl]urea]	84.3
COc1ccccc1Cn1c(C)cc(OCc2ccccc2CNC(=O)Nc2cc(C(C)(C)C)nn2-c2ccc(O)cc2)c(C)c1=O [Example 263, 1-[3-tert-butyl-1-(4-hydroxyphenyl)-1H-pyrazol-5-yl]-3-[2-({[1-(2-methoxybenzyl)-3,6-dimethyl-2-oxo-1,2-dihydropyridin-4-yl]oxy}methyl)benzyl]urea]	23.1
COc1ccccc1Cn1c(C)cc(OCc2ccccc2CNC(=O)Nc2cc(C(C)(C)C)nn2-c2ccc(O)c(Cl)c2)c(C)c1=O [Example 264, 1-[3-tert-butyl-1-(3-chloro-4-hydroxyphenyl)-1H-pyrazol-5-yl]-3-[2-({[1-(2-methoxybenzyl)-3,6-dimethyl-2-oxo-1,2-dihydro-pyridin-4-yl]oxy}methyl)benzyl]urea]	27.4
COc1ccc(Cn2c(C)cc(OCc3ccccc3CNC(=O)Nc3cc(C(C)(C)C)nn3-c3cccc(OCCO)c3)c(Cl)c2=O)cc1Cl [Example 265, 1-{3-tert-butyl-1-[3-(2-hydroxyethoxy)phenyl]-1H-pyrazol-5-yl}-3-[2-({[3-chloro-1-(3-chloro-4-methoxybenzyl)-6-methyl-2-oxo-1,2-dihydropyridin-4-yl]oxy}methyl)benzyl]urea]	8.4
COc1ccc(Cn2c(C)cc(OCc3ccccc3CNC(=O)Nc3cc(C(C)(C)C)nn3-c3ccc(O)c(Cl)c3)c(C)c2=O)cc1Cl [Example 266, 1-[3-tert-butyl-1-(3-chloro-4-hydroxyphenyl)-1H-pyrazol-5-yl]-3-[2-({[1-(3-chloro-4-methoxybenzyl)-3,6-dimethyl-2-oxo-1,2-dihydropyridin-4-yl]oxy}methyl)benzyl]urea]	19.2
COc1ccc(Cn2c(C)cc(OCc3ccccc3CNC(=O)Nc3cc(C(C)(C)C)nn3-c3ccc(O)cc3)c(C)c2=O)cc1Cl [Example 267, 1-[3-tert-butyl-1-(4-hydroxyphenyl)-1H-pyrazol-5-yl]-3-[2-({[1-(3-chloro-4-methoxybenzyl)-3,6-dimethyl-2-oxo-1,2-dihydro-pyridin-4-yl]oxy}methyl)benzyl]urea]	16.2
CSc1ccccc1Cn1c(C)cc(OCc2ccccc2CNC(=O)Nc2cc(C(C)(C)C)nn2-c2ccc(O)cc2)c(Cl)c1=O [Example 268, 1-[3-tert-butyl-1-(4-hydroxyphenyl)-1H-pyrazol-5-yl]-3-{2-[({3-chloro-6-methyl-1-[2-(methylthio)benzyl]-2-oxo-1,2-dihydro-pyridin-4-yl}oxy)methyl]benzyl}urea]	23.6
